Source: patent US7776846B2, “Enhancement of activity and/or duration of action of selected anti-inflammatory steroids for topical or other local application” (priority 2003, dated 2010)

Tests used:
[1] = system: forearm of a human volunteer; test: Human vasoconstriction (blanching) testing, AUC through 18 hours; type: in vivo; details: for effect on the time period during which hydrocortisone displayed activity / effect on the vasoconstrictor activity of hydrocortisone: co-applied with hydrocortisone; for effect on the vasoconstrictor activity of hydrocortisone: molar ratio hydrocortisone:enhancer 1:5 to 1:1, particularly at the lower concentrations
Description: The combinations of the present invention have undergone human vasoconstriction, or blanching, testing. Such testing gives a reliable indication of local anti-inflammatory/glucocorticoid activity.
Test compounds at varying mM concentrations as noted below were dissolved in ethanol/propylene glycol (9/1) solution, and 20 μL of the mixtures were applied to filter paper discs, 0.7 cm in diameter. After ethanol evaporation, each disc was attached to waterproof adhesive tape, then applied to the forearm of a human volunteer and left in place for 4 hours. Groups of 6 forearms were tested at each concentration and the intensity of vasoconstriction was judged at 2, 4, 6, 8, 10, 12 and 18 hours after removal of the discs, except where otherwise indicated.
The grading scale for the vasoconstriction activity was as follows: 0, normal skin; 1, slight pallor of indistinct outline; 2, pallor with at least two corners outlined; 3, even pallor with a clear outline of the application sites; 4, very intense pallor. The scores were totaled at each concentration at each time after removal to give a total score at each time interval and an overall total for each concentration. The higher the total score, the greater the blanching or anti-inflammatory effect.
Tested in this manner were hydrocortisone, Δ^1-cortienic acid, the methyl ester of Δ^1-cortienic acid, a combination of hydrocortisone plus Δ^1-cortienic acid, and a combination of hydrocortisone plus the methyl ester of Δ^1-cortienic acid. The structures of the test compounds are shown below:
The data for Δ^1-CA alone and Δ^1-MeCA alone are from a group of 8 volunteers, rather than the 6 used for the other testing.

[2] = system: forearms of human volunteers; test: Further human vasoconstriction testing, AUC through 24 hours; type: in vivo; details: enhancing agent alone, 0.5-50 mM
[3] = system: forearms of human volunteers; test: as above; type: in vivo; details: for effect of increasing the ratio of (II) to (Ia/Ib) to about 2:1: HC 25 mM + enhancer 50 mM versus 1:1; for synergism with HC: ratios of HC:enhancer from 5:1 to 1:2; for AUC (sum of the individual vasoconstriction scores through 24 hours): total of 6 tests
Description: The objective of this study was to evaluate the effect of Δ^1-cortienic acid (Δ^1-CA) and the methyl ester of Δ^1-cortienic acid (Δ^1-MeCA) on the vasoconstriction effect of hydrocortisone (HC). The structures for HC, Δ^1-CA and Δ^1-MeCA are given above.
HC (50 mM), Δ^1-CA (0, 10, 25, 50 and 100 mM) and Δ^1-MeCA (0, 10, 25, 50 and 100 mM) were dissolved in a vehicle containing absolute ethanol and propylene glycol (9:1). The resultant HC solutions were mixed (1:1) with vehicle only, or with the Δ^1-CA or Δ^1-MeCA solutions, so that 25 mM of final HC solutions containing various concentrations of Δ^1-CA or Δ^1-MeCA (0 to 50 mM) were obtained. The resultant mixtures (20 μl) were loaded onto circular paper discs (7 mm diameter) that were attached to a water impervious adhesive film (3M). After evaporation of ethanol, the films were applied to the forearms of human volunteers for 4 hours.
Subsequently, the vasoconstriction reaction was judged by the appearance of pallor at various time intervals after the removal of the discs and films (2, 4, 6, 8, 10, 12, 18 and 24 hours after removal). The grading scale was as follows: 0, normal skin; 1, slight pallor; 2, pallor with at least two corners outlined; 3, even pallor with a clear outline of the application sites; 4, very intense pallor. Due to the relatively high variations in response between volunteers, the total score of 6 tests at each time period was taken for the activity evaluation. As before, an overall total for each concentration was obtained. The results were as follows, where AUC was estimated at the sum of the individual scores through 24 hours.

[4] = target: T1, receptor ([3H]-triamcinolone acetonide as tracer) (Rattus norvegicus, UniProt P06536); details: medium containing 10^−5M cortienic acid as competitor; cited from earlier work
T1 sequence (P06536 1-795): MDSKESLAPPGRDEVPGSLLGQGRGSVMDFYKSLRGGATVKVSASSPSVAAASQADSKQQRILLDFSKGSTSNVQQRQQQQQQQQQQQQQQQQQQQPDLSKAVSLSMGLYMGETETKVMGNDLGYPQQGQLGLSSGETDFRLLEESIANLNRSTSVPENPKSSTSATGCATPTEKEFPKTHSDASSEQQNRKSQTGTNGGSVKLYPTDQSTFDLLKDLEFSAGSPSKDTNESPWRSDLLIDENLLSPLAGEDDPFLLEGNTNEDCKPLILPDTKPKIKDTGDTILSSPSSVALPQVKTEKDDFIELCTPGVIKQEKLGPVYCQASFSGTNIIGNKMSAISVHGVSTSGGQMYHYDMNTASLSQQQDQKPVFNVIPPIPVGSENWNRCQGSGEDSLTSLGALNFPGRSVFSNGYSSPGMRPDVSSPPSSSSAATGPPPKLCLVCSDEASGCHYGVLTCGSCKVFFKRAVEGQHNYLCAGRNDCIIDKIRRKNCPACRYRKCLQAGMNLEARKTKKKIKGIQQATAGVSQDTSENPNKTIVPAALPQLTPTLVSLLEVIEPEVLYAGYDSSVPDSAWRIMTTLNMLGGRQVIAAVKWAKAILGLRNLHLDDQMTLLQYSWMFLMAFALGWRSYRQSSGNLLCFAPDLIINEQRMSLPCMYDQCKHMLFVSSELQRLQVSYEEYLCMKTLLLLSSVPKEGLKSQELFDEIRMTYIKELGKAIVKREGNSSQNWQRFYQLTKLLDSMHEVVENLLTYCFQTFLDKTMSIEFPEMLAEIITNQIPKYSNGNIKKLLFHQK

[5] = enhancing agent alone, 0.5 mM, group of 8 volunteers
[6] = enhancing agent alone, 2.5 mM, group of 8 volunteers
[7] = enhancing agent alone, 5 mM, group of 8 volunteers
[8] = enhancing agent alone, 25 mM, group of 8 volunteers
[9] = enhancing agent alone, 50 mM, group of 8 volunteers

Compound	effect on the time period during which hydrocortisone displayed activity [1]	effect on the vasoconstrictor activity of hydrocortisone [1]	AUC (sum of the individual vasoconstriction scores through 18 hours) [1, 5]	AUC (sum of the individual vasoconstriction scores through 18 hours) [1, 6]	AUC (sum of the individual vasoconstriction scores through 18 hours) [1, 7]	AUC (sum of the individual vasoconstriction scores through 18 hours) [1, 8]	AUC (sum of the individual vasoconstriction scores through 18 hours) [1, 9]	vasoconstriction activity when tested alone [1]	AUC (sum of the individual vasoconstriction scores) [2]	effect of increasing the ratio of (II) to (Ia/Ib) to about 2:1 [3]	effect on the vasoconstriction activity of HC ([3]; co-applied with HC 25 mM)	synergism with HC [3]	further results
COC(=O)[C@@]1(O)CCC2C3CCC4=CC(=O)C=CC4(C)C3C(O)CC21C (stereo partly drawn) [Δ^1-Cortienic Acid Methyl Ester, methyl 11β,17α-dihydroxyandrosta-1,4-dien-3-one-17β-carboxylate]	able to extend the time period	enhanced the vasoconstrictor activity of hydrocortisone	0	0	0	0	0	neither Δ^1-cortienic acid nor Δ^1-cortienic acid methyl ester had any vasoconstriction activity	0	does not appear to add any significant benefit	increased the vasoconstriction activity of HC	synergistic results	time after which pallor could still be detected in one arm ([3]; co-applied with HC): ≥ 5 days; increasing activity and duration compared with Δ^1-CA ([3]; co-applied with HC 25 mM): higher increasing activity and longer duration
CC12C=CC(=O)C=C1CCC1C2C(O)CC2(C)C1CC[C@]2(O)C(=O)O (stereo partly drawn) [Δ^1-Cortienic Acid, 11β,17α-dihydroxyandrosta-1,4-dien-3-one-17β-carboxylic acid]	able to extend the time period	enhanced the vasoconstrictor activity of hydrocortisone	0	0	0	0	0	neither Δ^1-cortienic acid nor Δ^1-cortienic acid methyl ester had any vasoconstriction activity	0	appears to decrease activity	increased the vasoconstriction activity of HC	synergistic results	
CCOC(=O)O[C@]1(C(=O)OCCl)CC[C@H]2[C@@H]3CCC4=CC(=O)C=C[C@]4(C)[C@H]3[C@@H](O)C[C@@]21C [loteprednol, loteprednol etabonate]													intrinsic activity in receptor binding [4]: intrinsically active
C[C@]12CCC(=O)C=C1CC[C@@H]1[C@@H]2[C@@H](O)C[C@@]2(C)[C@H]1CC[C@]2(O)C(=O)CO [Hydrocortisone, hydrocortisone, reference compound]								exhibited activity					time after removal of the disc by which activity was nearly gone ([1]; hydrocortisone alone): ~12 h; AUC (sum of the individual vasoconstriction scores through 18 hours) ([1]; hydrocortisone alone, 1 mM (0.036% by weight), 20 μL on disc, 4 hours, 6 forearms): 0; AUC (sum of the individual vasoconstriction scores through 18 hours) ([1]; hydrocortisone alone, 2 mM (0.073%), 6 forearms): 0; AUC (sum of the individual vasoconstriction scores through 18 hours) ([1]; hydrocortisone alone, 5 mM (0.181%), 6 forearms): 0; AUC (sum of the individual vasoconstriction scores through 18 hours) ([1]; hydrocortisone alone, 10 mM (0.363%), 6 forearms): 3; AUC (sum of the individual vasoconstriction scores through 18 hours) ([1]; hydrocortisone alone, 25 mM (0.906%), 6 forearms): 5; AUC (sum of the individual vasoconstriction scores through 18 hours) ([1]; hydrocortisone alone, 50 mM (1.81%), 6 forearms): 18; AUC (sum of the individual vasoconstriction scores through 24 hours) ([3]; HC 25 mM + Δ^1-CA 0 mM (HC alone, Δ^1-CA series)): 14; AUC (sum of the individual vasoconstriction scores through 24 hours) ([3]; HC 25 mM + Δ^1-MeCA 0 mM (HC alone, Δ^1-MeCA series)): 33
